Measurements reported in patent US20160297830A1, “NOVEL COMPOUNDS USEFUL FOR THE TREATMENT OF BACTERIAL INFECTIOUS DISEASES” (GALAPAGOS NV, priority 2013, published 2016).
Values after ≈ are worked out from the molar mass of the structure shown. Like-named read-outs stand apart in the source and are kept apart here.

How the values were obtained:
E. coli Ec1 ATCC 25922 = test: Antibacterial activity assay (MIC), E. coli Ec1; type: cell-based; conditions: Escherichia coli
[1] = test system: S. aureus Sa26 ATCC 25923; test: Antibacterial activity assay (MIC), S. aureus Sa26; type: cell-based; conditions: Staphylococcus aureus
S. aureus Sa4 NCTC 6571 = test: Antibacterial activity assay (MIC), S. aureus Sa4; type: cell-based; conditions: Staphylococcus aureus
[2] = test system: E. coli Ec50 efflux pump KO; test: microbe, parasite or virus in culture; type: cell-based; conditions: Escherichia coli, read-out: MIC Ec50 efflux pump KO
[3] = test system: H. influenza Hi106 ATCC 51907; test: organism not typed; type: cell-based; conditions: read-out: MIC Hi106
[4] = test system: H. influenza Hi47 clinical strain, Ampicillin Resistant; test: organism not typed; type: cell-based; conditions: read-out: MIC Hi47
S. aureus Sa1 ATCC 13709 = test: microbe, parasite or virus in culture; type: cell-based; conditions: Staphylococcus aureus
[5] = target: DNA Polymerase IIIα (DnaE) from Staphylococcus aureus (Staphylococcus aureus, UniProt Q6GG04); test: biochemical
Sequence of DNA Polymerase IIIα (DnaE) from Staphylococcus aureus (Q6GG04 1-1022): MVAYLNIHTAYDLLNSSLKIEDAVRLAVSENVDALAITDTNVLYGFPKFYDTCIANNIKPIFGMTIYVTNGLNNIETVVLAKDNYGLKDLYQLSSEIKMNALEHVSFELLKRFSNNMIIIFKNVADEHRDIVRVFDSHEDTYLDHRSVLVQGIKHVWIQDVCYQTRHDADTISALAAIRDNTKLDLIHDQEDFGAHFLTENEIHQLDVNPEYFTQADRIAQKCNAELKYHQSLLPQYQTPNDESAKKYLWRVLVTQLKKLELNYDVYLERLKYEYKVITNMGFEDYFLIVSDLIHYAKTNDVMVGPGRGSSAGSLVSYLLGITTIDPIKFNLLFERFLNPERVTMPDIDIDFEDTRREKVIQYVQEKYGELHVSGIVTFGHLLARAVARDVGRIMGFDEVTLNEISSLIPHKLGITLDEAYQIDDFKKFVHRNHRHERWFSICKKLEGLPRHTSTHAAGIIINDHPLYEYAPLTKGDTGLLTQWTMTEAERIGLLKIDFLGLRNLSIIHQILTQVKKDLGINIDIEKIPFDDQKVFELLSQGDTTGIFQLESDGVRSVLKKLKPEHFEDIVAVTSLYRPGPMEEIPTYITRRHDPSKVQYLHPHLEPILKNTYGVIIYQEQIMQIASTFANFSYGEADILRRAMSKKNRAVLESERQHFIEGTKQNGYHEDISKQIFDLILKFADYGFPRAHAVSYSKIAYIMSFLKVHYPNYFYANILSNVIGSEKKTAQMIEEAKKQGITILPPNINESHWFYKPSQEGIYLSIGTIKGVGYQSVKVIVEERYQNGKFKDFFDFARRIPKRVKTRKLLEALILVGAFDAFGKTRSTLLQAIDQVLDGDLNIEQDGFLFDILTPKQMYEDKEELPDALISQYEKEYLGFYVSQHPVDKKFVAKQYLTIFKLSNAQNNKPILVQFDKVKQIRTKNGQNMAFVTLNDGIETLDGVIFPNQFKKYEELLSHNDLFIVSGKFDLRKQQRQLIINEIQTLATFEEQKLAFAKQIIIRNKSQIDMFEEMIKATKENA

[6] = test system: H. influenza Hi10 clinical strain; test: organism not typed; type: cell-based; conditions: read-out: MIC Hi10
[7] = test system: S. aureus Sa2 clinical strain NCIMB 41953, MRSA; test: microbe, parasite or virus in culture; type: cell-based; conditions: Staphylococcus aureus, read-out: MIC Sa2
[8] = test system: E. coli Ec113 efflux pump KO; test: microbe, parasite or virus in culture; type: cell-based; conditions: Escherichia coli, read-out: MIC Ec113 efflux pump KO
DNA III Polymerase E = DNA III Polymerase E (Escherichia coli, UniProt P10443); test: In vitro activity against DNA III Polymerase E, E. coli; type: biochemical
Sequence of DNA III Polymerase E (P10443 whole entry): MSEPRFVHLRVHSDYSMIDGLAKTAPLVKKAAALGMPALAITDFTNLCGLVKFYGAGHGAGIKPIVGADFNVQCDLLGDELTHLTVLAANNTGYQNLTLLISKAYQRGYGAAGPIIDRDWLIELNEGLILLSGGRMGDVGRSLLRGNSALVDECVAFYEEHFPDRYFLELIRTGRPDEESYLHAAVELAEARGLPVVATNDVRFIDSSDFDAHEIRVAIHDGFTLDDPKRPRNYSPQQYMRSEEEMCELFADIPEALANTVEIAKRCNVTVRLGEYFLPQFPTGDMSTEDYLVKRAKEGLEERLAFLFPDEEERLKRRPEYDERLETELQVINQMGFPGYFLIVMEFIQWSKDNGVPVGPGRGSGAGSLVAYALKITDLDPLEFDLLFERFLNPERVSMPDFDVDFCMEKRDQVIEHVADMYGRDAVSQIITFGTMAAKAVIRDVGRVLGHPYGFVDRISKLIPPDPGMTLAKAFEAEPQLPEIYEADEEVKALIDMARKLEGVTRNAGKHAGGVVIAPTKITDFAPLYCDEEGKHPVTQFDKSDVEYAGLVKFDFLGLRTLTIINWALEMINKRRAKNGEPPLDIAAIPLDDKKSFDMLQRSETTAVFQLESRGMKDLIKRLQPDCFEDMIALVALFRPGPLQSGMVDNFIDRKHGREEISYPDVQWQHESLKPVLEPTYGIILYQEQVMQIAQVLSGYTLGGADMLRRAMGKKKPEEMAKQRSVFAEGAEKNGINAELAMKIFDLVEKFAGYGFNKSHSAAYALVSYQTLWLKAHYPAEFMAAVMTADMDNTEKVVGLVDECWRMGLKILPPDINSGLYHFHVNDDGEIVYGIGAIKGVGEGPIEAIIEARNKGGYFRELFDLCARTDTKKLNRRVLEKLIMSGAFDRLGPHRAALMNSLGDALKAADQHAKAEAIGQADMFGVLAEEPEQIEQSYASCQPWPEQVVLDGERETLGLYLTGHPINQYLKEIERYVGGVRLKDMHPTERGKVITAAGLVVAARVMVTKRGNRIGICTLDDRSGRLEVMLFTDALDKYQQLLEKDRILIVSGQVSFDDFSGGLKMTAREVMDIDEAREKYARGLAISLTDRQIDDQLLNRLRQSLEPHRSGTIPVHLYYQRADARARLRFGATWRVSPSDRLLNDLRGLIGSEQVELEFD
Procedure, shortened: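 Recombinant enzyme (0.47 μg/mL diluted stock) in 20 mM Tris pH7.5, 8 mM DTT, 10 mM MgOAc, 0.05% CHAPS met compound series from 100 μM top, 1/5 steps. Activated calf thymus DNA, dNTPs and [α-33P]-dTTP substrate were added, and incubation ran 120 min at 30° C. IC50 came from filter-captured incorporated radioactivity versus controls.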

[9] = test system: H. influenza Hi3 ATCC 31517; test: organism not typed; type: cell-based; conditions: read-out: MIC Hi3
[10] = test system: Methicillin Resistant S. aureus (MRSA); test: Neutropenic mouse thigh infection model; conditions: Thigh Sa
[11] = test system: Methicillin Resistant S. aureus Sa2 (MRSA); test: animal or person; type: in vivo
[12] = test system: Methicillin Resistant S. aureus Sa2 (MRSA); type: in vivo; conditions: Groin Sa, sample time 31 h post infection
[13] = DNA polymerase III, E. coli, read-out: IC50 semiquantitative scoring, E. coli
[14] = Study 1, 100 mg/kg IP BID, sample time 7 h PI
[15] = ATCC25922, E. coli Ec1 ATCC 25922, sensitive strain, read-out: MIC Ec1
[16] = Staphylococcus aureus, MRSA, in Mus musculus, po, 24 h, read-out: Log reduction vs. untreated, Study 3, 50 mg/kg PO BID, sample 24 h post infection, lung
[17] = Study 3, 50 mg/kg PO BID, sample 24 h post infection, lung
[18] = ATCC25923, read-out: MIC Sa26 + 10% SH, S. aureus Sa26 + 10% SH
[19] = ATCC25923, read-out: MIC Sa26 + 50% SH, S. aureus Sa26 + 50% SH
[20] = ATCC25923, S. aureus Sa26 ATCC 25923, sensitive strain, Mueller-Hinton Broth, 37° C., read-out: MIC Sa26
[21] = NCTC6571, S. aureus Sa4 NCTC 6571, sensitive strain, read-out: MIC Sa4
[22] = ATCC13709, S. aureus Sa1 ATCC 13709, sensitive strain, Mueller-Hinton Broth, 37° C., read-out: MIC Sa1
[23] = Study 9, 50 mg/kg PO BID, sample time 24 h PI
[24] = Study 1, 50 mg/kg PO BID, sample 24 h post infection, lung
[25] = Study 1, 50 mg/kg SC BID, sample time 7 h PI
[26] = Study 2, 50 mg/kg SC BID, sample time 7 h PI
[27] = Study 3, 50 mg/kg SC BID, sample time 7 h PI
[28] = Study 4, 15 mg/kg SC BID, sample time 24 h PI
[29] = Study 5, 50 mg/kg SC BID, sample time 24 h PI
[30] = Study 8, 50 mg/kg SC QD, sample time 48 h PI

SMILES | MIC [2] | MIC [3] | MIC [4] | IC50 [5] | MIC [6] | MIC [7] | MIC [8] | IC50 (DNA III Polymerase E; [13]) | MIC [9] | MIC (E. coli Ec1 ATCC 25922; [15]) | log reduction at 50 mg/kg [11, 16] | Active [11, 17] | MIC [1, 18] | MIC [1, 19] | MIC [1, 20] | MIC (S. aureus Sa4 NCTC 6571; [21]) | MIC (S. aureus Sa1 ATCC 13709; [22]) | IC50 (DNA III Polymerase E) | Active [11, 24] | also measured
COC[C@H]1[C@@H](O)[C@@H]2O[C@@]34/C(C)=C/[C@@H](C)[C@@H]([C@H](O)COC)OC(=O)[C@H](COC)[C@H]3C=C[C@@H]2[C@H]4[C@@H]1O [Branimycin, reference compound] | 8 µg/mL (≈ 16.6 µM) | > 64 µg/mL | > 64 µg/mL | 2.07 to 2070 nM | > 64 µg/mL | 64 µg/mL (≈ 133 µM) | 1 µg/mL (≈ 2.07 µM) | 2070 to 20700 nM | > 64 µg/mL |  |  |  |  |  |  |  |  |  |  | MIC (E. coli Ec1 ATCC 25922; ATCC25922, read-out: MIC Ec1): > 64 µg/mL; MIC ([1]; ATCC25923, read-out: MIC Sa26): 64 µg/mL (≈ 133 µM); MIC ([1]; ATCC25923, read-out: MIC Sa26 + 10% SH): 64 µg/mL; MIC ([1]; ATCC25923, read-out: MIC Sa26 + 50% SH): 64 µg/mL; MIC (S. aureus Sa4 NCTC 6571; NCTC6571, read-out: MIC Sa4): 64 µg/mL (≈ 133 µM); MIC (S. aureus Sa1 ATCC 13709; ATCC13709, read-out: MIC Sa1): 64 µg/mL (≈ 133 µM); Active [10, 14]: N; Log reduction vs. untreated [10, 14]: −0.3
COC[C@@H]1[C@@H](O)[C@@H]2[C@H]3C=C[C@@H]4[C@@H](COC)C(=O)O[C@H]([C@H](O)COC)[C@H](C)/C=C(\C)[C@@]24O[C@H]3[C@@H]1OC(=O)c1cc(F)c[nH]1 [Compound 19, 8-O-4-Fluoro-1H-pyrrole-2′-carbonylbranimycin] | 64 µg/mL (≈ 108 µM) | > 64 µg/mL | > 64 µg/mL | 1.68 to 1680 nM | > 64 µg/mL | 0.5 µg/mL (≈ 0.842 µM) | 0.5 µg/mL (≈ 0.842 µM) |  | > 64 µg/mL | > 64 µg/mL | 3.56 | Y | 0.5 µg/mL | 1 µg/mL | 0.5 µg/mL (≈ 0.842 µM) | 0.25 µg/mL (≈ 0.421 µM) | 0.5 µg/mL (≈ 0.842 µM) | 1680 to 16800 nM |  | log reduction at 25 mg/kg ([11]; Staphylococcus aureus, MRSA, in Mus musculus, po, 72 h, read-out: Log reduction vs. untreated, Study 6, 25 mg/kg PO QD, sample 72 h post infection, lung): 3.65; Active ([11]; Study 6, 25 mg/kg PO QD, sample 72 h post infection, lung): Y; Active [10, 23]: Y; Log reduction vs. untreated [10, 23]: −3.28
COCC(=NO)[C@H]1OC(=O)[C@H](COC)[C@H]2C=C[C@H]3[C@H]4O[C@]2(/C(C)=C/[C@H]1C)[C@@H]3[C@H](O)[C@@H](COC)[C@H]4OC(=O)c1ccc[nH]1 [Compound 25, 18-Deoxy-18-oximino-8-O-1H-pyrrole-2′-carbonylbranimycin] | 0.5 µg/mL (≈ 0.849 µM) | > 64 µg/mL | > 64 µg/mL | 1.7 to 1700 nM | > 64 µg/mL | ≤ 0.06 µg/mL | 0.25 µg/mL (≈ 0.425 µM) | 1700 to 17000 nM | > 64 µg/mL | > 64 µg/mL |  |  | 0.5 µg/mL | 1 µg/mL | 0.5 µg/mL (≈ 0.849 µM) | 0.25 µg/mL (≈ 0.425 µM) | 0.25 µg/mL (≈ 0.425 µM) |  | N | log reduction at 50 mg/kg ([11]; Staphylococcus aureus, MRSA, in Mus musculus, Study 1, 50 mg/kg PO BID, sample 24 h post infection, lung, read-out: Log reduction vs. untreated): 0.36
COC[C@@H]1[C@@H](O)[C@@H]2[C@H]3C=C[C@@H]4[C@@H](COC)C(=O)O[C@H]([C@H](O)COC)[C@H](C)/C=C(\C)[C@@]24O[C@H]3[C@@H]1OC(=O)c1cc(Cl)c[nH]1 [Compound 28, 8-O-4-Chloro-1H-pyrrole-2′-carbonylbranimycin] | 64 µg/mL (≈ 105 µM) | 64 µg/mL (≈ 105 µM) | 64 µg/mL (≈ 105 µM) | 1.64 to 1640 nM | 64 µg/mL (≈ 105 µM) | 4 µg/mL (≈ 6.56 µM) | 1 µg/mL (≈ 1.64 µM) |  | > 64 µg/mL | > 64 µg/mL | 1.64 | N | 4 µg/mL | 16 µg/mL | 4 µg/mL (≈ 6.56 µM) | 4 µg/mL (≈ 6.56 µM) | 2 µg/mL (≈ 3.28 µM) | 1640 to 16400 nM |  | 
C[C@H]1COc2c(N3CCN(C)CC3)c(F)cc3c(=O)c(C(=O)O)cn1c23 [Levofloxacin, reference compound] |  |  |  |  |  |  |  |  |  |  | -1.17 | N |  |  |  |  |  |  | N | log reduction at 50 mg/kg ([11]; Staphylococcus aureus, MRSA, in Mus musculus, po, 24 h, read-out: Log reduction vs. untreated, Study 1, 50 mg/kg PO BID, sample 24 h post infection, lung): 0.32; log reduction at 50 mg/kg ([11]; Staphylococcus aureus, MRSA, in Mus musculus, po, 24 h, read-out: Log reduction vs. untreated, Study 2, 50 mg/kg PO BID, sample 24 h post infection, lung): 0.55; Active ([11]; Study 2, 50 mg/kg PO BID, sample 24 h post infection, lung): N; Active ([12]; Study 2, 50 mg/kg PO BID): N; Log reduction vs. untreated ([12]; Study 2, 50 mg/kg PO BID): −1.00
CN[C@H](CC(C)C)C(=O)N[C@H]1C(=O)N[C@@H](CC(N)=O)C(=O)N[C@H]2C(=O)N[C@H]3C(=O)N[C@H](C(=O)N[C@H](C(=O)O)c4cc(O)cc(O)c4-c4cc3ccc4O)[C@H](O)c3ccc(c(Cl)c3)Oc3cc2cc(c3O[C@@H]2O[C@H](CO)[C@@H](O)[C@H](O)[C@H]2O[C@H]2C[C@](C)(N)[C@H](O)[C@H](C)O2)Oc2ccc(cc2Cl)[C@H]1O [Vancomycin] |  |  |  |  |  |  |  |  |  |  |  |  |  |  |  |  |  |  |  | log reduction at 50 mg/kg ([11]; Staphylococcus aureus, MRSA, in Mus musculus, sc, 24 h, read-out: Log reduction vs. untreated): 2; Active ([11]; Study 1, 50 mg/kg SC BID, sample 24 h post infection, lung): Y; Active ([12]; Study 1, 50 mg/kg SC BID): Y; Log reduction vs. untreated ([12]; Study 1, 50 mg/kg SC BID): −3.59; Active [10, 25]: Y; Log reduction vs. untreated [10, 25]: −4.01; Active [10, 26]: Y; Log reduction vs. untreated [10, 26]: −2.57; Active [10, 27]: Y; Log reduction vs. untreated [10, 27]: −1.52; Active [10, 28]: Y; Log reduction vs. untreated [10, 28]: −3.96; Active [10, 29]: Y; Log reduction vs. untreated [10, 29]: −4.27; Active [10, 30]: Y; Log reduction vs. untreated [10, 30]: −3.2
